Data published in US10519211B2, “Compounds as peptidic GLP1/glucagon/GIP receptor agonists” (SANOFI, priority 2016, dated 2019).
Numbered stars: 1 amine (or outer) side, 2 acyl side, 3 side chain; on linkers, the order of the positions; unused ones are H or OH. Square brackets hold non-standard residues; d marks the D form. Side chains are listed from the residue outwards. Peptide text beside a SMILES is read from it. * marks the point of attachment. γGlu = O=C(O)[C@H](CCC(=O)[*:2])N[*:1]; Palmitoyl = CCCCCCCCCCCCCCCC(=O)*; Aib = CC(C)(N)C(=O)O

Columns and labels:
[1] = Solubility assessment (UPLC-UV); assay type: physicochemical; settings: acetate buffer pH 4.5, 2.7 mg/ml m-cresol (buffer system A), target 10 mg/ml
In short: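 Peptides at 10 mg/mL (purity-corrected, by UPLC/MS) in 100 mM acetate buffer pH 4.5 with 2.7 mg/ml m-Cresol, gently agitated 1 hour, then centrifuged 15 min at 2500 RCF. Supernatant, diluted 1:10, quantified by UPLC-UV peak area against a reference peptide standard curve, extinction-coefficient corrected.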

[2] = tested on: female diet-induced obese (DIO) C57BL/6NHsd mice; test: Acute and chronic effects after subcutaneous treatment in female diet-induced obese (DIO) mice; assay type: in vivo, mouse; settings: for Body mass compared to the DIO-Vehicle group / Whole body fat mass compared to the DIO-Vehicle group / Plasma insulin concentrations compared to DIO vehicle / Plasma total cholesterol concentrations compared to DIO vehicle / Liver mass on day 28 compared to DIO animals treated with vehicle / Plasma alanine aminotransferase concentration on day 28 compared to DIO vehicle: 30 μg/kg s.c. twice daily; for Body mass compared to the DIO-Vehicle group / Whole body fat mass compared to the DIO-Vehicle group / Body mass change: 28 days; for Body mass compared to the DIO-Vehicle group / Whole body fat mass compared to the DIO-Vehicle group / Plasma insulin concentrations compared to DIO vehicle / Plasma total cholesterol concentrations compared to DIO vehicle / Liver mass on day 28 compared to DIO animals treated with vehicle / Plasma alanine aminotransferase concentration on day 28 compared to DIO vehicle / 24 hour blood glucose profile following first treatment: in words; for Plasma insulin concentrations compared to DIO vehicle / Plasma total cholesterol concentrations compared to DIO vehicle: day 28; for 24 hour blood glucose profile following first treatment: 30 μg/kg s.c., day 1, fed DIO mice, vs DIO control; for Body mass change / Whole body fat mass change / Terminal liver mass (g) / Terminal plasma alanine aminotransferase (U/L) / Terminal plasma insulin (U/L) / Terminal plasma total cholesterol (mmol/L): twice-daily 30 μg/kg s.c.; for Body mass change: mean ± SEM; for Whole body fat mass change: QNMR predose vs day 26, mean ± SEM; for Terminal liver mass (g) / Terminal plasma alanine aminotransferase (U/L) / Terminal plasma insulin (U/L) / Terminal plasma total cholesterol (mmol/L): day 28, mean ± SEM
Procedure: Female C57BL/6NHsd mice were ordered group housed from Envigo RMS Inc., shipped group housed and remained group housed with shipped cage mates in shoebox caging with wood chip bedding until day 38 of the predose phase. At the study start mice were between 25-26 weeks old.
Mice were housed under vivarium conditions that included a 12 h light/dark cycle (light phase 04:00 AM-4:00 PM), room temperatures between 23-26° C. and a relative humidity between 30-70%. All animals had free access to water and a high fat diet (TD97366) for 16 weeks prior to pharmacological intervention (dosing phase). Feed was replaced with fresh feed weekly until and for the last time on day 38 of the predose phase. During the subsequent dosing phase, approximately 50% of the remaining feed were removed, replaced with fresh feed, and pellets were mixed evenly once per week.
On predose day 38, obese DIO mice were assigned to treatment groups (n=8) to match mean body masses between all DIO groups. An age-matched group with ad libitum access to a rodent maintenance diet (Teklad Global Diets Rodent 2014, pelleted) was included in the study as a lean control group. In the predosing phase from day 32 through 38, all study animals were treated with vehicle (Phosphate Buffered Saline, PBS, Gibco, without CaCl2 and MgCl2) once daily (s.c. approximately 0.2 mL/mouse).
On day 37 of the predose phase, the test article was diluted with PBS to a concentration of 100 μg/mL and aliquots of this stock solution were stored at approximately ≤−60° C. Stock aliquots were thawed for weekly use and thereafter stored in a refrigerator at approximately 4° C. The injected test article solution was prepared fresh once on each dosing day by diluting stock solution with PBS to achieve the desired concentration.
Mice were treated twice daily with a s.c. injection of PBS-vehicle or the test article for 28 days. The morning dosing was initiated and completed between 06:00 and 07:30 AM and the afternoon dosing between 2:00 and 3:30 PM. On day 28 of the dosing phase only the morning dose was administered. The applied volume was 5 ml/kg and the dose was adjusted to the most recent body mass recording of each individual.
Animals had unlimited access to water and feed during the experiment. On day 1 of the dosing phase approximately 5 μL of blood were collected via tail clips at hour 0, prior to the first s.c. dose of PBS-vehicle or test-article as well as 1, 2, 3, 4, 6, and 24 hours post-dose. Animals received the second s.c. dose of PBS-vehicle or test-article 8 hours after the first dose. The 24 hour blood collection of the blood glucose profile was performed prior to dosing on day 2. Glucose measurements were performed in whole blood and in duplicate or triplicate using Aviva glucometers.
Body mass was measured daily approximately between 06:00-07:30 AM from day 32 through 38 of the predosing phase and throughout the 28 days of the dosing phase. During the dosing phase mice were treated twice daily with either a s.c. injection of PBS-vehicle or test article.
To determine whole body fat mass Quantitative Nuclear Magnetic Resonance (QNMR) measurements were performed on predosing day 37 and on day 26 of the dosing phase. During the dosing phase mice were treated twice daily with either a s.c. injection of PBS-vehicle or test article.
On day 28 blood was collected prior to any other inlife activities for determination of plasma insulin concentrations. Then the morning dose was administered and necropsy was performed 4 hours post-dose. For this purpose animals were anesthetized with isoflurane and blood was collected by orbital bleeding.
On day 28 and 4 hours after the morning dose, blood was collected from mice under isoflurane anesthesia as described above. Then mice were killed and livers were collected and weighed.
Data are depicted as means±SEM. […] A One-Way ANOVA and Tukey Test were used for pairwise multiple comparisons of all groups (n=8/group, deviations from group size are indicated). […]

Row | Structure (SMILES) | solubility at 1 h [1] [µg/mL] | Body mass compared to the DIO-Vehicle group [2] | Whole body fat mass compared to the DIO-Vehicle group [2] | Plasma insulin concentrations compared to DIO vehicle [2] | Plasma total cholesterol concentrations compared to DIO vehicle [2] | Liver mass on day 28 compared to DIO animals treated with vehicle [2] | Plasma alanine aminotransferase concentration on day 28 compared to DIO vehicle [2] | 24 hour blood glucose profile following first treatment [2] | Body mass change ([2]; Table 9) [g] | Whole body fat mass change ([2]; Table 9) [g] | Terminal liver mass (g) ([2]; Table 9) | Terminal plasma alanine aminotransferase (U/L) ([2]; Table 9) | Terminal plasma insulin (U/L) ([2]; Table 9) | Terminal plasma total cholesterol (mmol/L) ([2]; Table 9) | Body mass change ([2]; Table 11) [g] | Whole body fat mass change ([2]; Table 11) [g] | Terminal liver mass (g) ([2]; Table 11) | Terminal plasma alanine aminotransferase (U/L) ([2]; Table 11) | Terminal plasma insulin (U/L) ([2]; Table 11) | Terminal plasma total cholesterol (mmol/L) ([2]; Table 11)
1 | CCCCCCCCCCCCCCCC(=O)N[C@@H](CCC(=O)N[C@@H](CCC(=O)NCCCC[C@H](NC(=O)[C@H](CC(C)C)NC(=O)[C@H](CCCCN)NC(=O)[C@H](CO)NC(=O)[C@H](CC(C)C)NC(=O)[C@H](CC(=O)O)NC(=O)[C@H](CO)NC(=O)[C@@H](NC(=O)[C@H](Cc1ccccc1)NC(=O)[C@@H](NC(=O)CNC(=O)[C@H](CCC(N)=O)NC(=O)C(C)(C)NC(=O)[C@@H](N)Cc1c[nH]cn1)[C@@H](C)O)[C@@H](C)O)C(=O)N[C@@H](CCC(=O)O)C(=O)N[C@@H](CCCCN)C(=O)N[C@@H](CCC(N)=O)C(=O)N[C@@H](CCCNC(=N)N)C(=O)N[C@@H](CCC(N)=O)C(=O)NC(C)(C)C(=O)N[C@@H](CCC(=O)O)C(=O)N[C@@H](Cc1ccccc1)C(=O)N[C@H](C(=O)N[C@@H](CCC(=O)O)C(=O)N[C@@H](Cc1c[nH]c2ccccc12)C(=O)N[C@@H](CC(C)C)C(=O)N[C@@H](CCCCN)C(=O)N[C@@H](C)C(=O)N[C@H](C)C(=O)NCC(=O)N1CCC[C@H]1C(=O)N1CCC[C@H]1C(=O)N[C@@H](CO)C(=O)NC(C)(C)C(=O)N[C@@H](CCCCN)C(=O)N1CCC[C@H]1C(=O)N1CCC[C@H]1C(=O)N1CCC[C@H]1C(=O)N[C@@H](CCCCN)C(N)=O)[C@@H](C)CC)C(=O)O)C(=O)O [SEQ ID NO: 7, H-Aib-Q-G-T-F-T-S-D-L-S-K-L-K[gGlu-gGlu-Palm]-E-K-Q-R-Q-Aib-E-F-I-E-W-L-K-A-dAla-G-P-P-S-Aib-K-P-P-P-K-NH2] (H-H[Aib]QGTFTSDLSKLK([γGlu-γGlu-Palmitoyl])EKQRQ[Aib]EFIEWLKA[dA]GPPS[Aib]KPPPK-NH2) | > 9900 | statistically significant decrease in body mass | statistically significantly reduction in whole body fat mass | statistically significant reduction in plasma insulin concentrations | statistically significant reduction in plasma total cholesterol concentrations | statistically significantly lower liver mass | statistically significantly lower plasma alanine aminotransferase concentration | decrease in blood glucose concentrations below concentrations observed in DIO control mice | -5.58 ± 0.60 | -4.46 ± 0.50 | +1.14 ± 0.04 g | +47.63 ± 6.76 U/L | +58.04 ± 6.33 U/L | +4.19 ± 0.15 mmol/L | – | – | – | – | – | –
2 | CCCCCCCCCCCCCCCC(=O)N[C@@H](CCC(=O)N[C@@H](CCC(=O)NCCCC[C@H](NC(=O)[C@H](CC(C)C)NC(=O)[C@H](CCCCN)NC(=O)[C@H](CO)NC(=O)[C@H](CC(C)C)NC(=O)[C@H](CC(=O)O)NC(=O)[C@H](CO)NC(=O)[C@@H](NC(=O)[C@H](Cc1ccccc1)NC(=O)[C@@H](NC(=O)CNC(=O)[C@H](CCC(N)=O)NC(=O)C(C)(C)NC(=O)[C@@H](N)Cc1c[nH]cn1)[C@@H](C)O)[C@@H](C)O)C(=O)N[C@@H](CCC(=O)O)C(=O)N[C@@H](CCC(=O)O)C(=O)N[C@@H](CCC(N)=O)C(=O)N[C@@H](CCCNC(=N)N)C(=O)N[C@@H](CCC(N)=O)C(=O)NC(C)(C)C(=O)N[C@@H](CCC(=O)O)C(=O)N[C@@H](Cc1ccccc1)C(=O)N[C@H](C(=O)N[C@@H](CCC(=O)O)C(=O)N[C@@H](Cc1c[nH]c2ccccc12)C(=O)N[C@@H](CC(C)C)C(=O)N[C@@H](CCCCN)C(=O)N[C@@H](C)C(=O)NCC(=O)NCC(=O)N[C@@H](Cc1c[nH]cn1)C(=O)N1CCC[C@H]1C(=O)N[C@@H](CO)C(=O)NC(C)(C)C(=O)N[C@@H](CCCCN)C(=O)N1CCC[C@H]1C(=O)N1CCC[C@H]1C(=O)N1CCC[C@H]1C(=O)N[C@@H](CCCCN)C(N)=O)[C@@H](C)CC)C(=O)O)C(=O)O [SEQ ID NO: 8, H-Aib-Q-G-T-F-T-S-D-L-S-K-L-K[gGlu-gGlu-Palm]-E-E-Q-R-Q-Aib-E-F-I-E-W-L-K-A-G-G-H-P-S-Aib-K-P-P-P-K-NH2] | > 10000 | statistically significant decrease in body mass | statistically significantly reduction in whole body fat mass | statistically significant reduction in plasma insulin concentrations | statistically significant reduction in plasma total cholesterol concentrations | statistically significantly lower liver mass | statistically significantly lower plasma alanine aminotransferase concentration | decrease in blood glucose concentrations below concentrations observed in DIO control mice | – | – | – | – | – | – | -8.23 ± 0.62 | -6.65 ± 0.38 | +1.08 ± 0.03 g | +68.88 ± 15.05 U/L | +39.70 ± 4.25 U/L | +4.36 ± 0.08 mmol/L
